Calls of active or inactive are those of the source.
Legend:
[1] = molecular target: Beta-2 adrenergic receptor (Homo sapiens, UniProt P07550); assay: ADRB2 activation measured by internalization – cell-based, FAP fluorogen, flow cytometry, cherry pick 1, dose response (AID 588763); assay type: functional
Beta Lactamase [2] = molecular target: T1, Beta Lactamase (Pseudomonas aeruginosa, UniProt Q932Y6); assay: BLA reporter interference, concentration series – BLA reporter cells, FRET fluorescence, artefact control for TLR9-MyD88 binding inhibitor project, dose response (AID 588341); assay type: cell-based;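 note: cell based assay in CHO-K1 cells stably expressing beta-lactamase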
T1 sequence (Q932Y6 whole entry): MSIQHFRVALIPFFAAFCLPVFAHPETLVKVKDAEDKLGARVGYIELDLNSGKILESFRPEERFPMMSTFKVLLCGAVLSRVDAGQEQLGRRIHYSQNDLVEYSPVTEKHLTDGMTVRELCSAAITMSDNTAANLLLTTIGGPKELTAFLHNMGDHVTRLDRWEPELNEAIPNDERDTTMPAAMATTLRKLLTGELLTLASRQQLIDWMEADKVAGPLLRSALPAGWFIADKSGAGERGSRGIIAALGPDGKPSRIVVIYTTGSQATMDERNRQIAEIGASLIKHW

[3] = molecular target: T2, Microphthalmia-associated transcription factor (Homo sapiens, UniProt O75030); assay: reducers of TRPM1 reporter luminescence, concentration series – cell-based, SK-MEL-5, cherry-picked, set 3, MITF inhibitor project, dose response (AID 493073); assay type: functional;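 note: SK-MEL-5 melanoma cells with luciferase driven by the MITF target TRPM1 promoter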
T2 sequence (O75030 whole entry): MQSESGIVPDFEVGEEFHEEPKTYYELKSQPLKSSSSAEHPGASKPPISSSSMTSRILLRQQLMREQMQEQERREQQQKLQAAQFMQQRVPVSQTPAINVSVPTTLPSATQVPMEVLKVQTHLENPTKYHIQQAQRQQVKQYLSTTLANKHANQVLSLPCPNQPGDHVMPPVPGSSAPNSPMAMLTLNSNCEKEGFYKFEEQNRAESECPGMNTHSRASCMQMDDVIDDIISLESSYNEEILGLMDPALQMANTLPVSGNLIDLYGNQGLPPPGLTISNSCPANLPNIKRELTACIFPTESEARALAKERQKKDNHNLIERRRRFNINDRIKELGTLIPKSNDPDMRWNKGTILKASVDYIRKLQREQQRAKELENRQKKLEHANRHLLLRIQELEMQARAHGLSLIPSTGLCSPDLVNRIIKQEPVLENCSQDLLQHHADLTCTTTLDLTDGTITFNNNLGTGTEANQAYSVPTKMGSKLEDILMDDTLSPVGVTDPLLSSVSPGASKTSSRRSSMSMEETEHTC

[4] = molecular target: T3, Kappa-type opioid receptor (Homo sapiens, UniProt P41145); assay type: functional
T3 sequence (P41145 whole entry): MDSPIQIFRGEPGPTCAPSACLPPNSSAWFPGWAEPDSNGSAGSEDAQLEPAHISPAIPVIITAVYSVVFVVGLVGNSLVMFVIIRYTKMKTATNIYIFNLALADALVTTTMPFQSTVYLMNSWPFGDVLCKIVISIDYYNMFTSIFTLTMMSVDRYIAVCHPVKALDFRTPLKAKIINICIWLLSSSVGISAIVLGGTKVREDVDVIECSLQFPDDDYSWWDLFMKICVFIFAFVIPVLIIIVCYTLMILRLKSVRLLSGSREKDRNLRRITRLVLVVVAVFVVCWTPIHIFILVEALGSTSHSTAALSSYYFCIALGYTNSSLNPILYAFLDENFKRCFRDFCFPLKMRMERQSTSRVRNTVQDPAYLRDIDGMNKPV

[5] = molecular target: T4, Rac GTPase-activating protein 1 (Homo sapiens, UniProt Q9H0H5); assay: blockers of MgcRacGAP-driven Rac1 GTP hydrolysis – biochemical, ADP Hunter fluorescence, primary and confirmatory, confirmation (AID 624330); assay type: functional
T4 sequence (Q9H0H5 whole entry): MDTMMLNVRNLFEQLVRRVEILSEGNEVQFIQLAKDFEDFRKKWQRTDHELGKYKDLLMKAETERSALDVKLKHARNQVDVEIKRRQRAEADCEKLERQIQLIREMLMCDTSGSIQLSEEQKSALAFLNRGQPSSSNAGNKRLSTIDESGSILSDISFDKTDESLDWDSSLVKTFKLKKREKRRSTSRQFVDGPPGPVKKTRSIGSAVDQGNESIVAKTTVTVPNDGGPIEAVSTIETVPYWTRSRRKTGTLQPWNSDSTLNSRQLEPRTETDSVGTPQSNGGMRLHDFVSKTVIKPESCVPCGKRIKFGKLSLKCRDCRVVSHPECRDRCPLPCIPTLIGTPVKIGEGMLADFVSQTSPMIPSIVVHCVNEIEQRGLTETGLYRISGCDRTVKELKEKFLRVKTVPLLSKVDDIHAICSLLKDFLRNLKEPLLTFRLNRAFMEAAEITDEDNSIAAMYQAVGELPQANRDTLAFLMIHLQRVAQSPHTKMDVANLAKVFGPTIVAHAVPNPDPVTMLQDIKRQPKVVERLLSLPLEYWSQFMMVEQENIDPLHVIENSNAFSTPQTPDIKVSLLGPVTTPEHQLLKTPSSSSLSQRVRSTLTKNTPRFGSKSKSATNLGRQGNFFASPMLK

[6] = viability loss in HeLa cells – cytotoxicity control for MgcRacGAP inhibitor project, dose response (AID 624300); assay type: functional
Beta Lactamase [7] = molecular target: T1, Beta Lactamase; assay: BLA reporter interference, concentration series – BLA reporter cells, FRET fluorescence, artefact control for NOD2-RIPK2 interaction inhibitor project, dose response (AID 651552); assay type: functional, cell-based
Beta-galactosidase = Beta-galactosidase (Escherichia coli, UniProt Q8VNN2); assay type: functional
CHO = CHO cell viability loss, potency – luminescence, cytotoxicity control for TLR9-MyD88 binding inhibitor project, dose response (AID 588339); assay type: functional, cell-based, hamster; conditions: Cricetulus griseus;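 note: CHO cells stably coexpressing TLR9 and MyD88 fusions from primary screen; compound exposure lasted 48 hours before viability readout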
Large T antigen = Large T antigen (Simian virus 40, UniProt P03070); assay type: functional, Betapolyomavirus macacae;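 note: Confirmatory-stage PubChem screen for compounds that inhibit SV40 T antigen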
Sequence of Large T antigen (P03070 whole entry, the tested form may be a part): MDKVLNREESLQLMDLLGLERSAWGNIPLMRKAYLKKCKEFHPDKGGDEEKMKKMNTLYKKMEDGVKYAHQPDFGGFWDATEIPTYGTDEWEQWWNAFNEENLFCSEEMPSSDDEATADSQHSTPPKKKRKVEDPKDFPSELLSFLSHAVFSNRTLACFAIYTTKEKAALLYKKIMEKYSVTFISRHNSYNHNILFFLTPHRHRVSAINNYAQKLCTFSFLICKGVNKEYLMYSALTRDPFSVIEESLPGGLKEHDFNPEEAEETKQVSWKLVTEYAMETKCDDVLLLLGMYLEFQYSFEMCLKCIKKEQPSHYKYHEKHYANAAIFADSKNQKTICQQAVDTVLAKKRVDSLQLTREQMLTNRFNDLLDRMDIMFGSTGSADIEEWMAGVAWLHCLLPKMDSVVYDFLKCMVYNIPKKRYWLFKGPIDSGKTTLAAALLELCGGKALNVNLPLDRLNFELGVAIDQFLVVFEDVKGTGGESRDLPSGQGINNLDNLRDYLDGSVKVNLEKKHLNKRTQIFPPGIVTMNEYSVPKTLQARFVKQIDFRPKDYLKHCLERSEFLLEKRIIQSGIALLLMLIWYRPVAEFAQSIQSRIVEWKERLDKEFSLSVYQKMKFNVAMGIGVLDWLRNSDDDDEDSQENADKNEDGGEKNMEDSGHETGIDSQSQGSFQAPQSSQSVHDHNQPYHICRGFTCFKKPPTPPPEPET

[8] = Fluorescence-based cell-based high throughput dose response assay for inhibitors of the interaction of nucleotide-binding oligomerization domain containing 2 (NOD2) and the receptor-interacting serine-threonine kinase 2 (RIPK2).; assay type: functional; conditions: Homo sapiens
INS1 [9] = assay: INS-1E survival protection against cytokine death – cell-based, luminescence, retest, dose response (AID 449756); assay type: functional; conditions: Rattus norvegicus;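 note: cell death triggered by IL-1 beta plus TNF-alpha plus IFN-gamma mixture; protective hits raise ATP signal compared with cytokine alone wells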
[10] = molecular target: T3, Kappa-type opioid receptor; assay type: functional; remark: listed apart in the source
HEK293 [11] = assay: HEK293T cell viability loss, resazurin readout – resazurin fluorescence, cytotoxicity control for NF-kB activator project, SAR follow-up (AID 493251); assay type: functional, cell-based; conditions: Homo sapiens
HEK293 [12] = assay: SAR Analysis of small molecule inhibitors of T-cell specific antigen receptor-induced NF-kB activation in a HEK-293T cell line using a luminescence assay - Set 2. [Related pubchem assays (depositor defined):AID435003, AID435012, AID489026]; assay type: functional, cell-based; conditions: Homo sapiens
Jurkat = assay: SAR Analysis of small molecule inhibitors of T-cell specific antigen receptor-induced NF-kB activation in a Jurkat cell line using a luminescence assay - Set 2. [Related pubchem assays (depositor defined):AID435003, AID435012, AID465]; assay type: functional, cell-based; conditions: Homo sapiens
INS1 [13] = assay: INS-1E mitochondrial potential loss inhibitors – cell-based, JC-1 fluorescence, dry powder, set 2, dose response (AID 488867); assay type: functional; conditions: Rattus norvegicus
INS1 [14] = assay: beta-cell survival under cytokine stress – INS-1E, ATP luminescence, dry powder, dose response (AID 488844); assay type: functional, cell-based; conditions: Rattus norvegicus
[15] = luciferase inhibitors in kinase-free ADP detection – biochemical, luminescence, cherry-pick, set 02, artefact control for Dyrk1A inhibitor project, dose response (AID 588348)
HSP90 = HSP90 (Plasmodium falciparum 3D7, UniProt Q8IL32); assay type: functional, organism-based
INS1 [16] = assay: INS-1E mitochondrial potential rescue under cytokines – cell-based, JC-1 fluorescence ratio, dry powder, dose response (AID 488931); assay type: functional; conditions: Rattus norvegicus
INS1 [17] = assay: suppression of NO production in INS-1E cells – cell-based, Griess absorbance, dry powder, set 2, dose response (AID 488868); assay type: functional; conditions: Rattus norvegicus
[18] = molecular target: T5, Zinc finger protein mex-5 (Caenorhabditis elegans, UniProt Q9XUB2); assay: potency of MEX-5 RNA-binding blockers – biochemical, C. elegans, fluorescence polarization, dose response (AID 1960)
T5 sequence (Q9XUB2 whole entry): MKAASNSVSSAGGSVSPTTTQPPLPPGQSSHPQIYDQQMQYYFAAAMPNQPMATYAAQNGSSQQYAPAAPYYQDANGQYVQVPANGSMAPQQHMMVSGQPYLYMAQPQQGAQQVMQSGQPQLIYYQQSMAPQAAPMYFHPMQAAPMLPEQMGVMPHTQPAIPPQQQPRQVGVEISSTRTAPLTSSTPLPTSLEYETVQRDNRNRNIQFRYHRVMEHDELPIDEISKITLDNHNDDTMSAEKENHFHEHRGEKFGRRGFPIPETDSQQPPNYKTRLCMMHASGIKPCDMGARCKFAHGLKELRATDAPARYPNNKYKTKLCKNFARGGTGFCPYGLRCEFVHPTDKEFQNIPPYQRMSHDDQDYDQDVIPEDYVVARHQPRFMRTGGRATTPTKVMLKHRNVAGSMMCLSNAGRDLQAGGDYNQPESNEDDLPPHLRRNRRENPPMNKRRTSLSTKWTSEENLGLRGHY

A-375 = assay: proliferation inhibition in MITF-low A375 cells – cell-based, cherry-pick samples, set 2, counter-screen for MITF modulator project, dose response (AID 540335); assay type: functional; conditions: Homo sapiens
[19] = molecular target: Apoptotic protease-activating factor 1 (Homo sapiens, UniProt O14727); assay type: functional
Sequence of Apoptotic protease-activating factor 1 (O14727 whole entry, the tested form may be a part): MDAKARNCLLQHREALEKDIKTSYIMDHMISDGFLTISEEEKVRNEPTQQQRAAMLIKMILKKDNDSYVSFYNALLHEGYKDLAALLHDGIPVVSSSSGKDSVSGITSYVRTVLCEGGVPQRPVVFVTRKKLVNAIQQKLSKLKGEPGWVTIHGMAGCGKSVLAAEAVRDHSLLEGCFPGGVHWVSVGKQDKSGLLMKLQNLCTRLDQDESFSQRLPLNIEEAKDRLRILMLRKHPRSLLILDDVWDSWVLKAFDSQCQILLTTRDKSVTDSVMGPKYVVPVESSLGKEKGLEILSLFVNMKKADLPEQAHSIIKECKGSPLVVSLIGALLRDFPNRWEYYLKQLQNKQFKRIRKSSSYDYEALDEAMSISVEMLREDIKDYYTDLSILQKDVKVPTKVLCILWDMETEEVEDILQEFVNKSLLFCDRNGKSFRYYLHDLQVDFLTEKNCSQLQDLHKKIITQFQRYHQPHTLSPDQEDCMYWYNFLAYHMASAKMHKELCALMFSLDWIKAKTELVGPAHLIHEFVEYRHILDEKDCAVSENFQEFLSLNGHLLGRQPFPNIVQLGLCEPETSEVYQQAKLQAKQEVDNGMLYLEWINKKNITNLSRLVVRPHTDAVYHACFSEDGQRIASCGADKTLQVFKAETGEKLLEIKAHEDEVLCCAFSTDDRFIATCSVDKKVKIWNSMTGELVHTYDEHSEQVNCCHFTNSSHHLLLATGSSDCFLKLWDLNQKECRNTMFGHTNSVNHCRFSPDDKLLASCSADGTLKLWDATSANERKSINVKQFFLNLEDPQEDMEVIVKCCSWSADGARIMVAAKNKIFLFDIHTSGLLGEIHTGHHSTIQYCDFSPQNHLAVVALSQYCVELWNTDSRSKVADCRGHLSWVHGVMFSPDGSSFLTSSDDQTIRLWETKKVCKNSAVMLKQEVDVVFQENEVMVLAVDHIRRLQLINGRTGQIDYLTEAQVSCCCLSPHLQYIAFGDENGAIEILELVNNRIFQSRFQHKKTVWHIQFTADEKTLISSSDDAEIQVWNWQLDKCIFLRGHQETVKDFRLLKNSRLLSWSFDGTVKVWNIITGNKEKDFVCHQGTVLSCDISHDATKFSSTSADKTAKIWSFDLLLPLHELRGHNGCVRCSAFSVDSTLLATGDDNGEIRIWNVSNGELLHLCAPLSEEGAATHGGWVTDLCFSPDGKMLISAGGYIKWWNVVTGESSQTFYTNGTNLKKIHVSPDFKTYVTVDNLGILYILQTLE

[20] = molecular target: T6, RNA-binding protein pos-1 (Caenorhabditis elegans, UniProt G5EF15); assay: disruptors of C. elegans POS-1 RNA interaction – biochemical, fluorescence polarization, dose response (AID 1964);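 note: purified POS-1 fused to maltose binding protein made in E. coli; potency of compounds blocking POS-1 binding to fluorescent RNA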
T6 sequence (G5EF15 whole entry): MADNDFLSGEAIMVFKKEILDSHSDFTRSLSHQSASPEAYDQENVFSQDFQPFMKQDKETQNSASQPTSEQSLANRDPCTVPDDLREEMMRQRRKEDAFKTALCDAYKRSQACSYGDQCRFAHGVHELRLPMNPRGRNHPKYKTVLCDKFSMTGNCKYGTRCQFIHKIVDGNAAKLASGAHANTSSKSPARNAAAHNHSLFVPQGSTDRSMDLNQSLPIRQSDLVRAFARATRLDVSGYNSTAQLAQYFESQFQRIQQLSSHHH

[21] = molecular target: ATP-dependent molecular chaperone HSP82 (Candida albicans (strain WO-1) (Yeast), UniProt C4YTQ8); assay: steroid-induced GRE reporter decrease in yeast – S. cerevisiae, luminescence, Hsp90 inhibitor project, dose response (AID 2400); assay type: functional, cell-based;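 note: beta-galactosidase luminescence from glucocorticoid response element reporter as proxy for Hsp90 function; inhibitor potency where signal loss means Hsp90 inhibition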
Sequence of ATP-dependent molecular chaperone HSP82 (C4YTQ8 whole entry): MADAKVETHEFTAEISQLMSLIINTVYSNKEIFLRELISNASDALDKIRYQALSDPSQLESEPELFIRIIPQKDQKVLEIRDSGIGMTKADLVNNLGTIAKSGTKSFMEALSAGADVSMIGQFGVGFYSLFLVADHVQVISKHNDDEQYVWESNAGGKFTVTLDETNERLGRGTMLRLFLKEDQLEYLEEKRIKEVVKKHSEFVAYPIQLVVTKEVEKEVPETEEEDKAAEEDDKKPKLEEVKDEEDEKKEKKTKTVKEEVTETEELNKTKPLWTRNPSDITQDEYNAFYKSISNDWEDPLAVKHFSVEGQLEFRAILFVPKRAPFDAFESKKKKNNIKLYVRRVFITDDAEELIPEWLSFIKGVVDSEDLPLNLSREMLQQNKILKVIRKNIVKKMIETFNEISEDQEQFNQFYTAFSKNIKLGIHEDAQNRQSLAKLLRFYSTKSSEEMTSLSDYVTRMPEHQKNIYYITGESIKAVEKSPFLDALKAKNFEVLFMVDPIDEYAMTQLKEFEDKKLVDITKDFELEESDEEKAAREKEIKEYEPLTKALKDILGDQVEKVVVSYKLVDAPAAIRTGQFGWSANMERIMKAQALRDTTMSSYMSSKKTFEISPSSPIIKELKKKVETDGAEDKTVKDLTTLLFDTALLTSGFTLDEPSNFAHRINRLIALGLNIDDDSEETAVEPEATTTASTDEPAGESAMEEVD

[22] = Trypanosoma cruzi growth suppression in host cells – NIH3T3 host cells, beta-gal luminescence, confirmation (AID 2044); assay type: functional, cell-based;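 note: intracellular parasites grown in NIH/3T3 mouse fibroblasts as host cells; luminescent beta-galactosidase reporter signal from transgenic T. cruzi replicating inside host cells; inhibitors lower the luminescence signal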
[23] = NIH-3T3 fibroblast cytotoxicity, dose response, cytotoxicity control, cell-based, fluorescence, Alamar Blue, secondary assay (AID 2327); assay type: functional;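 note: NIH-3T3 mouse fibroblasts cultured with fluconazole at 8 µg/mL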
[24] = molecular target: Serine/threonine-protein phosphatase (Candida dubliniensis (strain CD36 / CBS 7987 / NCPF 3949 / NRRLY-17841) (Yeast), UniProt B9W6M3); assay: blockers of CaCl2-induced CDRE-lacZ signaling – S. cerevisiae, luminescence, secondary, dose response (AID 2388); assay type: functional, cell-based;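 note: yeast reporter cells carrying a calcineurin-responsive lacZ construct stimulated with calcium chloride; luminescent beta-galactosidase reporter signal in whole cells rather than isolated phosphatase activity; potency for inhibition where a drop in reporter signal means calcineurin blockade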
Sequence of Serine/threonine-protein phosphatase (B9W6M3 whole entry): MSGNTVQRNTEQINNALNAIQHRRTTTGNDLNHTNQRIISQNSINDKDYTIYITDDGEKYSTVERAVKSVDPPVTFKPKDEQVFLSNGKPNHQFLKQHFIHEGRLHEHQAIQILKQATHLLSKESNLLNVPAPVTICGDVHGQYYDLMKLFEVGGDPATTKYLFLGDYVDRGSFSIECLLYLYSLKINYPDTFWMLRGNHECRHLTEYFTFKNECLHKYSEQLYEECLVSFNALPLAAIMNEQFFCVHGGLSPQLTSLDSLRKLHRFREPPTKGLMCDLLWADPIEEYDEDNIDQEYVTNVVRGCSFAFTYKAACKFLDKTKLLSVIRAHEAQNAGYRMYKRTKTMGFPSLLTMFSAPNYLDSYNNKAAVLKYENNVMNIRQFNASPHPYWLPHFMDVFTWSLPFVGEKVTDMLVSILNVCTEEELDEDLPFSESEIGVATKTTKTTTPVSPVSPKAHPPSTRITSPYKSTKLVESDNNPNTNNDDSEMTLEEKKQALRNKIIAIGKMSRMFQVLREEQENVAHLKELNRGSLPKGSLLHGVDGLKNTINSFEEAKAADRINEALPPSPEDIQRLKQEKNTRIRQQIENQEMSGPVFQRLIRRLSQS

[25] = fluconazole-exposed Candida albicans growth modulators – fluorescence, retest, confirmation (AID 2467); assay type: functional, cell-based
[26] = NIH3T3 cell viability loss – ATP luminescence, mouse fibroblasts, counter-screen, dose response (AID 2010); assay type: functional, cell-based;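 note: cells exposed to compound for about 90 hours before reading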

Sequence of Beta-2 adrenergic receptor (P07550 whole entry): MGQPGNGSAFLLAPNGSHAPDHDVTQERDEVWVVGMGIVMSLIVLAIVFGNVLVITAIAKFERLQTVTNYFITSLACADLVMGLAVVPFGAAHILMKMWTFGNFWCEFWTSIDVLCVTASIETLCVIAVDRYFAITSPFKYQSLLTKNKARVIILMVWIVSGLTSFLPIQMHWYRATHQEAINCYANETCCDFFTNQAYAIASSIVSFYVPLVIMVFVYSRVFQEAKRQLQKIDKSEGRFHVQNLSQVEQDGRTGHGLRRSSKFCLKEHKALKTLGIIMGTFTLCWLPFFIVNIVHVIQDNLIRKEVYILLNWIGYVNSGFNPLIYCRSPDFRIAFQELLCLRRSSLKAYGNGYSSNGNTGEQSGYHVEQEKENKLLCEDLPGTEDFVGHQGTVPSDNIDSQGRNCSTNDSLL

CN(c1ccccc1)S(=O)(=O)c1cccc(C(=O)Nc2cccc(C(=O)NC3CC3)c2)c1
EC50 [1]: 0.575 µM (active)

N#CC(C#N)=C1C=CC=CN1/C(=C\c1ccco1)C(=O)c1ccc(Br)cc1
IC50 (Beta Lactamase [2]): 13.2 µM (inactive)
AC50 [3]: 5.59 µM (active)
IC50 [4]: 15.4 µM
IC50 [5]: 88.7 µM (active)
CC50 [6]: 100 µM (active)
IC50 (Beta Lactamase [7]): 44.7 µM (inactive)
EC50 (Beta-galactosidase): > 31.5 µM (inactive)
IC50 (CHO): 1.56 µM (active)
IC50 (Large T antigen): 15.5 µM (active)
IC50 [8]: 0.895 µM (active)
AC50 (INS1 [9]): 7.3 µM (active)
IC50 [10]: 4.51 µM (active)

COc1cc(NC(=O)c2ccc3c(c2)OCO3)ccc1NC(=O)c1cc2ccccc2o1
IC50 (HEK293 [11]): > 80 µM (inactive)
IC50 (HEK293 [12]): > 80 µM (inactive)
IC50 (Jurkat): > 79 µM (inactive)

COc1ccc(S(=O)(=O)N(C)C[C@@H]2Oc3c(NC(=O)Nc4ccc(F)cc4)cccc3C(=O)N([C@@H](C)CO)C[C@H]2C)cc1
AC50 (INS1 [13]): 134 µM (active)
AC50 (INS1 [14]): 22.8 µM (active)

CC(=O)Nc1cccc(C(=O)OCC(=O)c2ccc3c(c2)OCO3)c1
AC50 [15]: 50.2 µM (active)

O=C(COc1ccc(Cl)cc1)NC1=NN(c2ccccc2)C(=O)C1
AC50 (HSP90): 32.5 µM (active)

Cc1ccc(S(=O)(=O)N(C)C[C@@H]2Oc3c(NC(=O)Nc4cccc5ccccc45)cccc3C(=O)N([C@H](C)CO)C[C@H]2C)cc1
AC50 (INS1 [14]): > 235 µM (inactive)
AC50 (INS1 [16]): 61.1 µM (active)
AC50 (INS1 [17]): 30.3 µM (active)

Cc1ccc(C(=O)N/C(=C\c2ccc(-c3ccccc3[N+](=O)[O-])o2)C(=O)NCCCN(C)C)cc1
EC50 [18]: 18.6 µM (active)
AC50 [3]: 3.28 µM (active)
AC50 (A-375): 33.4 µM (active)
IC50 [19]: 70.1 µM (active)
EC50 [20]: > 300 µM (inconclusive)

CCOc1ccccc1NC(=O)C(=O)N/N=C/c1cc(Br)ccc1O
AC50 [3]: 3.34 µM (active)
EC50 [21]: > 160 µM (inactive)
EC50 [22]: 1.02 µM (active)
EC50 [23]: > 160 µM (inactive)
EC50 [24]: > 180 µM (inactive)
EC50 [25]: 0.358 µM (active)
EC50 [26]: > 60 µM (not active)
AC50 (INS1 [9]): 1.04 µM (active)
